Measured values published in the supplement of paper PMC10307832.

Experiments:
Experiment in all cases: relative viability (nuclei count vs DMSO), 5 days (fraction); higher = more cells survive
NCI-H650 = system: NCI-H650
Outline: (§1)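 Nuclei were stained with Hoechst during a one-step fixation (final 0.05% Triton X-100, 1% formaldehyde, 1 ug/ml Hoechst) carried out 5 days after dosing, then counted on 4× images. The cells, lung cancer lines in 1536-well plates, had been dosed by pin tool the day after seeding with one drug alone or a fixed anchor-drug dose plus five library-drug doses (not always all listed) in √10 steps. Relative viability is the nuclei count in treated wells divided by that in vehicle wells, and each value is the median of duplicate plates.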

HCC-827 = system: HCC-827
Outline: as §1

SK-MES-1 = system: SK-MES-1
Outline: as §1

NCI-H596 = system: NCI-H596
Outline: as §1

HCC-44 = system: HCC-44
Outline: as §1

NCI-H1437 = system: NCI-H1437
Outline: as §1

NCI-H441 = system: NCI-H441
Outline: as §1

NCI-H358 = system: NCI-H358
Outline: as §1

HCC-15 = system: HCC-15
Outline: as §1

A-427 = system: A-427
Outline: as §1

NCI-H1650 = system: NCI-H1650
Outline: as §1

HARA = details: first compound 0.0002 µM
Outline: as §1

## CC(=O)O[C@@]12CO[C@@H]1C[C@H](O)[C@@]1(C)C(=O)[C@H](O)C3=C(C)[C@@H](OC(=O)[C@H](O)[C@@H](NC(=O)OC(C)(C)C)c4ccccc4)C[C@@](O)([C@@H](OC(=O)c4ccccc4)[C@H]21)C3(C)C [Docetaxel] + CCNC(=O)c1noc(-c2cc(C(C)C)c(O)cc2O)c1-c1ccc(CN2CCOCC2)cc1 [Luminespib] (partner 0.01 µM)
NCI-H650; first compound 0.0002 µM
  relative viability: 0.796
NCI-H650; first compound 0.000632 µM
  relative viability: 0.519
NCI-H650; first compound 0.002 µM
  relative viability: 0.212
NCI-H650; first compound 0.006325 µM
  relative viability: 0.18
NCI-H650; first compound 0.02 µM
  relative viability: 0.111
HCC-827; first compound 0.0002 µM
  relative viability: 0.588
HCC-827; first compound 0.000632 µM
  relative viability: 0.67
HCC-827; first compound 0.002 µM
  relative viability: 0.244
HCC-827; first compound 0.006325 µM
  relative viability: 0.159
HCC-827; first compound 0.02 µM
  relative viability: 0.142
SK-MES-1; first compound 0.0002 µM
  relative viability: 0.695
SK-MES-1; first compound 0.000632 µM
  relative viability: 0.618
SK-MES-1; first compound 0.002 µM
  relative viability: 0.267
SK-MES-1; first compound 0.02 µM
  relative viability: 0.163
NCI-H596; first compound 0.0002 µM
  relative viability: 0.872
NCI-H596; first compound 0.000632 µM
  relative viability: 0.58
NCI-H596; first compound 0.002 µM
  relative viability: 0.713
NCI-H596; first compound 0.006325 µM
  relative viability: 0.36
NCI-H596; first compound 0.02 µM
  relative viability: 0.267
HCC-44; first compound 0.0002 µM
  relative viability: 0.986
HCC-44; first compound 0.000632 µM
  relative viability: 0.901
HCC-44; first compound 0.002 µM
  relative viability: 0.35
HCC-44; first compound 0.006325 µM
  relative viability: 0.289
HCC-44; first compound 0.02 µM
  relative viability: 0.171
NCI-H1437; first compound 0.0002 µM
  relative viability: 1.07
NCI-H1437; first compound 0.000632 µM
  relative viability: 1.09
NCI-H1437; first compound 0.002 µM
  relative viability: 0.277
NCI-H1437; first compound 0.006325 µM
  relative viability: 0.234
NCI-H1437; first compound 0.02 µM
  relative viability: 0.167
NCI-H441; first compound 0.0002 µM
  relative viability: 0.294
NCI-H441; first compound 0.000632 µM
  relative viability: 0.288
NCI-H441; first compound 0.002 µM
  relative viability: 0.3
NCI-H441; first compound 0.006325 µM
  relative viability: 0.257
NCI-H441; first compound 0.02 µM
  relative viability: 0.253
NCI-H358; first compound 0.0002 µM
  relative viability: 0.314
NCI-H358; first compound 0.000632 µM
  relative viability: 0.305
NCI-H358; first compound 0.002 µM
  relative viability: 0.135
NCI-H358; first compound 0.006325 µM
  relative viability: 0.12
NCI-H358; first compound 0.02 µM
  relative viability: 0.098
HCC-15; first compound 0.0002 µM
  relative viability: 0.35
HCC-15; first compound 0.000632 µM
  relative viability: 0.303
HCC-15; first compound 0.002 µM
  relative viability: 0.173
HCC-15; first compound 0.006325 µM
  relative viability: 0.182
HCC-15; first compound 0.02 µM
  relative viability: 0.12
A-427; first compound 0.0002 µM
  relative viability: 0.883
A-427; first compound 0.000632 µM
  relative viability: 0.832
A-427; first compound 0.002 µM
  relative viability: 0.507
A-427; first compound 0.006325 µM
  relative viability: 0.238
A-427; first compound 0.02 µM
  relative viability: 0.161
NCI-H1650; first compound 0.0002 µM
  relative viability: 0.22
NCI-H1650; first compound 0.000632 µM
  relative viability: 0.212
NCI-H1650; first compound 0.006325 µM
  relative viability: 0.199
NCI-H1650; first compound 0.02 µM
  relative viability: 0.193
HARA
  relative viability: 0.46
